The test system of assay [1] is CCRF-CEM. As to the kind of experiment: Compound was evaluated for cytotoxicity by inhibition of mitochondrial DNA synthesis. The assay is classed as functional, cell-based. To be noted: Homo sapiens.
In a further assay the test system is Hepatoma cell line. As to the kind of experiment: Antiviral activity against hepatitis B virus in human hepatoma cell line (2.2.15 cells). The assay is classed as functional, cell-based.
Assay [2] concerns CCRF-CEM. As to the kind of experiment: Cytotoxicity in H1 CEM cells. The assay is classed as functional, cell-based. Particulars: Homo sapiens.
Assay [3] can be described thus: Selectivity measured as the ratio between IC50 value and EC50 value. The assay is classed as functional.

The structures appear in SMILES notation.

Take `Nc1ccn([C@@H]2CO[C@H](CO)O2)c(=O)n1` [TROXACITABINE]: the concentration for half-maximal inhibition (IC50) is greater than 1 µM with CCRF-CEM [1] and 0.056 µM in the assay with CCRF-CEM [2]. This compound returned an EC50 in the assay on Hepatoma cell line of 0.0005 µM.

Consider `Nc1ccn([C@@H]2CS[C@H](CO)O2)c(=O)n1` [LAMIVUDINE], for which the 50% inhibitory concentration (IC50) in the assay with CCRF-CEM [1] and in the assay on CCRF-CEM [2] was 50 µM in each case. This compound also returned a 50% effective concentration (EC50) with Hepatoma cell line of 0.01 µM.

In the assay on Hepatoma cell line, `Nc1ccn([C@@H]2CO[C@@H](CO)O2)c(=O)n1` showed an EC50 of 5 µM.

For the compound `O=c1[nH]c(=O)n([C@H]2CO[C@@H](CO)O2)cc1F`, in the assay with Hepatoma cell line, the EC50 is greater than 5 µM.

As to `Nc1ccn([C@H]2CO[C@@H](CO)O2)c(=O)n1`, the IC50 was greater than 10 µM in the assay with CCRF-CEM [1] and 2.4 µM in the assay on CCRF-CEM [2]. The compound further came in with an EC50 in the assay on Hepatoma cell line of 0.01 µM. In addition, the Selectivity in assay [3] is 240.

With `O=c1ccn([C@H]2CO[C@@H](CO)O2)c(=O)[nH]1`, in the assay with Hepatoma cell line, the EC50 was greater than 20 µM.

Turning to `Nc1ccn([C@H]2CO[C@H](CO)O2)c(=O)n1`, the IC50 in the assay on CCRF-CEM [1] and with CCRF-CEM [2] was greater than 50 µM throughout. In addition, in the assay on Hepatoma cell line, the 50% effective concentration (EC50) is greater than 5 µM.

With `O=c1[nH]c(=O)n([C@H]2CO[C@@H](CO)O2)cc1Br`, in the assay with Hepatoma cell line, the EC50 was greater than 5 µM.

Broadly, the IC50 is the concentration that gives 50% inhibition. What is called EC50 is the concentration at which the effect is half-maximal. The low end stands for a more potent agent, the high end for a less potent agent.

For the origin of these results see ChEMBL document CHEMBL1128808, “Dioxolane cytosine nucleosides as anti-hepatitis B agents” (Bioorg Med Chem Lett, 1995).
